Laboratory results: patent publication US10376520B2, “Methods for the treatment of cardiovascular disorders” (Galapagos NV, priority 2015, dated 2019)

Test system: RA patients
Test: [HDL] determination, Study 1 (RA patients, add-on to MTX)
Assay type: in vivo, human
Description: Double-blind, placebo-controlled add on study in subjects with moderately to severely active RA who have an inadequate response to methotrexate (MTX) (oral or parenteral).
595 subjects randomized to one of 6 dose regimens of Compound 1 (dosed as a [Compound 1:HCl:3H2O]) (3 dose levels administered either once or twice daily) or placebo on top of each subject's stable dose of MTX.
Compound 1 (dosed as a [Compound 1:HCl:3H2O]) is dosed for twelve weeks once daily (q.d.) (50 mg, 100 mg or 200 mg) or twice daily (b.i.d.) (25 mg, 50 mg or 100 mg); or placebo.
At Week 12, the subjects on placebo who have not achieved 20% improvement in swollen joint count (SJC66) and tender joint count (TJC68) are re-randomized automatically to receive Compound 1 (dosed as a [Compound 1:HCl:3H2O]) either at 100 mg q.d. or 50 mg b.i.d. doses in a blinded fashion; subjects on 50 mg q.d. who have not achieved 20% improvement in SJC66 and TJC68 will be assigned to 100 mg q.d. and subjects on 25 mg b.i.d. that have not achieved a 20% improvement in SJC66 and TJC68 will be assigned to 50 mg b.i.d. Subjects who switch treatment at week 12 are handled as if they discontinued at week 12 for the purpose of statistical analysis, whereas subjects in the other groups will maintain their randomized treatment until Week 24.
This assay relies on a homogeneous enzymatic colorimetric test. In the presence of magnesium ions, dextran sulfate selectively forms water-soluble complexes with LDL, VLDL and chylomicrons which are resistant to PEG-modified enzymes.
The cholesterol concentration of [HDL]-cholesterol is determined enzymatically by cholesterol esterase and cholesterol oxidase coupled with PEG to the amino groups (approx. 40%).
In the presence of peroxidase, the hydrogen peroxide generated reacts with 4-amino-antipyrine and Sodium N-(2-hydroxy-3-sulfopropyl)-3,5-dimethoxyaniline (HSDA) to form a purple-blue dye. The color intensity of this dye is directly proportional to the cholesterol concentration and is measured photometrically.
Human serum and plasma samples [HDL] determination was done on a Roche/Hitachi Cobas c 701/702 system which automatically calculate the analyte concentration of each sample. Samples containing precipitates are centrifuged before performing the assay.

[1] = continued 200 mg q.d. (N = 86), week 4
[2] = continued 200 mg q.d. (N = 86), week 8
[3] = continued 200 mg q.d. (N = 86), week 12
[4] = continued 200 mg q.d. (N = 86), week 16
[5] = continued 200 mg q.d. (N = 86), week 20
[6] = continued 200 mg q.d. (N = 86), week 24
[7] = from 25 mg b.i.d. to 50 mg b.i.d at 12 weeks (N = 17), week 1
[8] = from 25 mg b.i.d. to 50 mg b.i.d at 12 weeks (N = 17), week 2
[9] = from 25 mg b.i.d. to 50 mg b.i.d at 12 weeks (N = 17), week 4
[10] = from 25 mg b.i.d. to 50 mg b.i.d at 12 weeks (N = 17), week 8
[11] = from 25 mg b.i.d. to 50 mg b.i.d at 12 weeks (N = 17), week 12
[12] = from 25 mg b.i.d. to 50 mg b.i.d at 12 weeks (N = 17), week 24
[13] = from 50 mg q.d. to 100 mg q.d. at 12 weeks (N = 19), week 1
[14] = from 50 mg q.d. to 100 mg q.d. at 12 weeks (N = 19), week 2
[15] = from 50 mg q.d. to 100 mg q.d. at 12 weeks (N = 19), week 4
[16] = from 50 mg q.d. to 100 mg q.d. at 12 weeks (N = 19), week 8
[17] = from 50 mg q.d. to 100 mg q.d. at 12 weeks (N = 19), week 12
[18] = from 50 mg q.d. to 100 mg q.d. at 12 weeks (N = 19), week 16
[19] = from 50 mg q.d. to 100 mg q.d. at 12 weeks (N = 19), week 20
[20] = from 50 mg q.d. to 100 mg q.d. at 12 weeks (N = 19), week 24
[21] = placebo switched to 50 mg b.i.d at week 12 (N = 15), week 16
[22] = placebo switched to 50 mg b.i.d at week 12 (N = 15), week 20
[23] = placebo switched to 50 mg b.i.d at week 12 (N = 15), week 24

## O=C(Nc1nc2cccc(-c3ccc(CN4CCS(=O)(=O)CC4)cc3)n2n1)C1CC1 [Compound 1, cyclopropanecarboxylic acid {5-[4-(1,1-dioxo-thiomorpholin-4-ylmethyl)-phenyl]-[1,2,4]triazolo[1,5-a]pyridin-2yl}-amide]
[1]
  [HDL] Mean percentage CFB - 24 weeks results: 19.85%
  [HDL] Median CFB - 24 weeks results: 0.25 mmol/L
[2]
  [HDL] Mean CFB - 24 weeks results: 0.29 mmol/L
  [HDL] Mean percentage CFB - 24 weeks results: 21.85%
  [HDL] Median CFB - 24 weeks results: 0.30 mmol/L
[3]
  [HDL] Mean CFB - 24 weeks results: 0.27 mmol/L
  [HDL] Mean percentage CFB - 24 weeks results: 21.24%
  [HDL] Median CFB - 24 weeks results: 0.26 mmol/L
[4]
  [HDL] Mean CFB - 24 weeks results: 0.27 mmol/L
  [HDL] Mean percentage CFB - 24 weeks results: 21.14%
  [HDL] Median CFB - 24 weeks results: 0.23 mmol/L
[5]
  [HDL] Mean CFB - 24 weeks results: 0.30 mmol/L
  [HDL] Mean percentage CFB - 24 weeks results: 24.27%
  [HDL] Median CFB - 24 weeks results: 0.30 mmol/L
[6]
  [HDL] Mean CFB - 24 weeks results: 0.26 mmol/L
  [HDL] Mean percentage CFB - 24 weeks results: 20.78%
  [HDL] Median CFB - 24 weeks results: 0.25 mmol/L
[7]
  [HDL] Mean CFB - 24 weeks results: -0.05 mmol/L
  [HDL] Mean percentage CFB - 24 weeks results: −1.35%
  [HDL] Median CFB - 24 weeks results: -0.01 mmol/L
[8]
  [HDL] Mean CFB - 24 weeks results: 0.03 mmol/L
  [HDL] Mean percentage CFB - 24 weeks results: 4.08%
  [HDL] Median CFB - 24 weeks results: 0.05 mmol/L
[9]
  [HDL] Mean CFB - 24 weeks results: -0.01 mmol/L
  [HDL] Mean percentage CFB - 24 weeks results: 1.09%
  [HDL] Median CFB - 24 weeks results: 0.00 mmol/L
[10]
  [HDL] Mean CFB - 24 weeks results: -0.02 mmol/L
  [HDL] Mean percentage CFB - 24 weeks results: 0.59%
  [HDL] Median CFB - 24 weeks results: 0.05 mmol/L
[11]
  [HDL] Mean CFB - 24 weeks results: 0.04 mmol/L
  [HDL] Mean percentage CFB - 24 weeks results: 5.55%
  [HDL] Median CFB - 24 weeks results: 0.00 mmol/L
From 25 mg b.i.d. to 50 mg b.i.d at 12 weeks (N = 17), week 16
  [HDL] Mean percentage CFB - 24 weeks results: 7.37%
From 25 mg b.i.d. to 50 mg b.i.d at 12 weeks (N = 17), week 20
  [HDL] Mean percentage CFB - 24 weeks results: 1.50%
[12]
  [HDL] Mean CFB - 24 weeks results: 0.10 mmol/L
  [HDL] Mean percentage CFB - 24 weeks results: 8.10%
  [HDL] Median CFB - 24 weeks results: 0.17 mmol/L
[13]
  [HDL] Mean CFB - 24 weeks results: 0.02 mmol/L
  [HDL] Mean percentage CFB - 24 weeks results: 2.29%
  [HDL] Median CFB - 24 weeks results: 0.00 mmol/L
[14]
  [HDL] Mean CFB - 24 weeks results: 0.10 mmol/L
  [HDL] Mean percentage CFB - 24 weeks results: 6.63%
  [HDL] Median CFB - 24 weeks results: 0.07 mmol/L
[15]
  [HDL] Mean CFB - 24 weeks results: 0.07 mmol/L
  [HDL] Mean percentage CFB - 24 weeks results: 5.26%
  [HDL] Median CFB - 24 weeks results: 0.06 mmol/L
[16]
  [HDL] Mean CFB - 24 weeks results: 0.05 mmol/L
  [HDL] Mean percentage CFB - 24 weeks results: 5.77%
  [HDL] Median CFB - 24 weeks results: 0.09 mmol/L
[17]
  [HDL] Mean CFB - 24 weeks results: -0.02 mmol/L
  [HDL] Mean percentage CFB - 24 weeks results: 2.41%
  [HDL] Median CFB - 24 weeks results: -0.05 mmol/L
[18]
  [HDL] Mean CFB - 24 weeks results: 0.18 mmol/L
  [HDL] Mean percentage CFB - 24 weeks results: 11.43%
  [HDL] Median CFB - 24 weeks results: 0.15 mmol/L
[19]
  [HDL] Mean CFB - 24 weeks results: 0.13 mmol/L
  [HDL] Mean percentage CFB - 24 weeks results: 8.89%
  [HDL] Median CFB - 24 weeks results: 0.20 mmol/L
[20]
  [HDL] Mean CFB - 24 weeks results: 0.11 mmol/L
  [HDL] Mean percentage CFB - 24 weeks results: 8.29%
  [HDL] Median CFB - 24 weeks results: 0.11 mmol/L
[21]
  [HDL] Mean CFB - 24 weeks results: 0.08 mmol/L
  [HDL] Mean percentage CFB - 24 weeks results: 10.96%
  [HDL] Median CFB - 24 weeks results: 0.18 mmol/L
[22]
  [HDL] Mean CFB - 24 weeks results: 0.10 mmol/L
  [HDL] Mean percentage CFB - 24 weeks results: 12.63%
  [HDL] Median CFB - 24 weeks results: 0.21 mmol/L
[23]
  [HDL] Mean CFB - 24 weeks results: 0.10 mmol/L
  [HDL] Mean percentage CFB - 24 weeks results: 10.63%
  [HDL] Median CFB - 24 weeks results: 0.10 mmol/L
Placebo switched to 100 mg q.d. at week 12 (N = 15), week 16
  [HDL] Mean percentage CFB - 24 weeks results: −0.14%
Placebo switched to 100 mg q.d. at week 12 (N = 15), week 20
  [HDL] Mean percentage CFB - 24 weeks results: 0.95%
Placebo switched to 100 mg q.d. at week 12 (N = 15), week 24
  [HDL] Mean percentage CFB - 24 weeks results: 0.14%
